# From patent publication US10329272B2 (priority 2015, dated 2019)
# Legend:
# [1] = test system: Botryotinia fuckeliana (Botrytis cinerea); assay: Botryotinia fuckeliana (Botrytis cinerea)/Liquid Culture (Gray Mould); assay type: cell-based; details: liquid culture, growth inhibition photometrically 3-4 days after application, compared to untreated control
# Procedure: Biological Examples Botryotinia fuckeliana (Botrytis cinerea)/Liquid Culture (Gray Mould)
# (§1) Conidia of the fungus from cryogenic storage are directly mixed into nutrient broth (Vogels broth). After placing a (DMSO) solution of test compound into a microtiter plate (96-well format), the nutrient broth containing the fungal spores is added. The test plates are incubated at 24° C. and the inhibition of growth is determined photometrically 3-4 days after application.
# [2] = test system: Glomerella lagenarium (Colletotrichum lagenarium); assay: Glomerella Lagenarium (Colletotrichum Lagenarium)/Liquid Culture (Anthracnose); assay type: cell-based; details: Colletotrichum orbiculare, liquid culture, growth inhibition photometrically 3-4 days after application, compared to untreated control
# Procedure: Glomerella Lagenarium (Colletotrichum Lagenarium)/Liquid Culture (Anthracnose)
# as §1, with “(PDB potato dextrose” for “(Vogels”, “measured” for “determined”
# [3] = test system: Monographella nivalis (Microdochium nivale); assay: Monographella Nivalis (Microdochium Nivale)/Liquid Culture (Foot Rot Cereals); assay type: cell-based; details: liquid culture, growth inhibition photometrically 4-5 days after application, compared to untreated control
# Procedure: Monographella Nivalis (Microdochium Nivale)/Liquid Culture (Foot Rot Cereals)
# as §1, with “(PDB potato dextrose” for “(Vogels”, “4-5” for “3-4”
# [4] = test system: Magnaporthe grisea (Pyricularia oryzae); assay: microbe, parasite or virus in culture; assay type: cell-based; details: read-out: control of Magnaporthe grisea
# Sclerotinia sclerotiorum = assay: Sclerotinia sclerotiorum/Liquid Culture (Cottony Rot); assay type: cell-based; details: liquid culture, growth inhibition photometrically 3-4 days after application, compared to untreated control
# Procedure: Sclerotinia sclerotiorum/Liquid Culture (Cottony Rot)
# as §1, with “Mycelia fragments of a newly grown liquid culture” for “Conidia”, “fungus” for “fungus from cryogenic storage”, “format)” for “format),”, “material” for “spores”
# [5] = test system: Mycosphaerella graminicola (Septoria tritici); assay: microbe, parasite or virus in culture; assay type: cell-based; details: Zymoseptoria tritici, read-out: control of Mycosphaerella graminicola
# Gaeumannomyces graminis = assay: Gaeumannomyces Graminis/Liquid Culture (Take-all of Cereals); assay type: cell-based; details: liquid culture, growth inhibition photometrically 4-5 days after application, compared to untreated control
# Procedure: Gaeumannomyces Graminis/Liquid Culture (Take-all of Cereals)
# as §1, with “Mycelial fragments of” for “Conidia of”, “storage were” for “storage are”, “broth (PDB potato dextrose” for “broth (Vogels”, “photometrically 4-5” for “photometrically 3-4”
# Fusarium culmorum = assay: microbe, parasite or virus in culture; assay type: cell-based; details: read-out: control of Fusarium culmorum
Compound,melting point [°C],inhibition of growth at 20 ppm [1] [%],inhibition of growth at 20 ppm [2] [%],inhibition of growth at 20 ppm [3] [%],inhibition of growth at 20 ppm [4] [%],inhibition of growth at 20 ppm (Sclerotinia sclerotiorum) [%],inhibition of growth at 20 ppm [5] [%],inhibition of growth at 20 ppm (Gaeumannomyces graminis) [%],inhibition of growth at 20 ppm (Fusarium culmorum) [%]
Cn1nc2c(Br)cccc2c1C1=NC(C)(C)C(O)c2ccccc21 (stereo not drawn),215 to 217,–,–,–,–,–,–,–,–
Cn1nc2c(Br)cccc2c1C1=NC(C)(C)C(O)c2c(F)cccc21 (stereo not drawn),103 to 105,–,–,–,–,–,–,–,–
Cn1nc2ccccc2c1C1=NC(C)(C)C(=O)c2ccccc21,169 to 170,–,–,–,–,–,–,–,–
Cn1nc2ccccc2c1C1=NC(C)(C)C(Br)c2ccccc21 (stereo not drawn),165 to 166,–,–,–,–,–,–,–,–
"Cn1nc2ccccc2c1C1=NC(C)(C)Cc2ccccc21 [Compound E-2, 3,3-dimethyl-1-(2-methylindazol-3-yl)-4H-isoquinoline]",107 to 108,≥ 80,≥ 80,≥ 80,≥ 80,≥ 80,–,–,–
"Cn1nc2c(Br)cccc2c1C1=NC(C)(C)Cc2ccccc21 [Compound E-5, 1-(7-bromo-2-methyl-indazol-3-yl)-3,3-dimethyl-4H-isoquinoline]",161 to 162,≥ 80,–,≥ 80,≥ 80,≥ 80,≥ 80,–,–
"Cn1nc2c(Br)cccc2c1C1=NC(C)(C)C(=O)c2ccccc21 [Compound E-6, 1-(7-bromo-2-methyl-indazol-3-yl)-3,3-dimethyl-isoquinolin-4-one]",–,≥ 80,–,≥ 80,≥ 80,–,–,–,–
"Cn1nc2c(Br)cccc2c1C1=NC(C)(C)C(Br)c2ccccc21 (stereo not drawn) [Compound E-7, 4-bromo-1-(7-bromo-2-methyl-indazol-3-yl)-3,3-dimethyl-4H-isoquinoline]",–,≥ 80,–,–,–,–,–,–,–
"Cn1nc2c(Br)cccc2c1C1=NC(C)(C)C(C)(C)c2c(F)cccc21 [Compound E-8, 1-(7-bromo-2-methyl-indazol-3-yl)-5-fluoro-3,3,4,4-tetramethyl-isoquinoline]",–,≥ 80,≥ 80,≥ 80,≥ 80,≥ 80,≥ 80,–,–
"Cn1nc2c(Br)cccc2c1C1=NC(C)(C)C(F)(F)c2ccccc21 [Compound E-10, 1-(7-bromo-2-methyl-indazol-3-yl)-4,4-difluoro-3,3-dimethyl-isoquinoline]",157 to 158,≥ 80,≥ 80,≥ 80,≥ 80,≥ 80,–,≥ 80,–
"Cc1cccc2c(C3=NC(C)(C)C(F)(F)c4ccccc43)n(C)nc12 [Compound E-11, 1-(2,7-dimethylindazol-3-yl)-4,4-difluoro-3,3-dimethyl-isoquinoline]",136 to 137,≥ 80,≥ 80,≥ 80,≥ 80,≥ 80,–,–,≥ 80
"Cn1nc2ccccc2c1C1=NC(C)(C)C(F)(F)c2ccccc21 [Compound E-13, 4,4-difluoro-3,3-dimethyl-1-(2-methylindazol-3-yl)isoquinoline]",–,≥ 80,≥ 80,≥ 80,≥ 80,≥ 80,–,–,–
"CC1(C)N=C(c2n[nH]c3ccccc23)c2cccc(F)c2C1(C)C [Compound E-14, 5-fluoro-1-(1H-indazol-3-yl)-3,3,4,4-tetramethyl-isoquinoline]",174 to 177,≥ 80,–,–,–,–,–,–,–
"Cn1nc2c(Br)cccc2c1C1=NC(C)(C)Cc2c(F)cccc21 [Compound E-15, 1-(7-bromo-2-methyl-indazol-3-yl)-5-fluoro-3,3-dimethyl-4H-isoquinoline]",168 to 169,≥ 80,–,≥ 80,≥ 80,–,–,–,–
"Cn1nc2c(Br)cccc2c1C1=NC(C)(C)C(=O)c2c(F)cccc21 [Compound E-18, 1-(7-bromo-2-methyl-indazol-3-yl)-5-fluoro-3,3-dimethyl-isoquinolin-4-one]",260 to 261,–,–,≥ 80,–,–,–,–,–
"Cn1nc2c(Br)cccc2c1C1=NC(C)(C)C(F)(F)c2c(F)cccc21 [Compound E-19, 1-(7-bromo-2-methyl-indazol-3-yl)-4,4,5-trifluoro-3,3-dimethyl-isoquinoline]",198 to 199,≥ 80,≥ 80,≥ 80,≥ 80,–,–,–,–
"Cc1cccc2c(C3=NC(C)(C)C(F)(F)c4c(F)cccc43)n(C)nc12 [Compound E-20, 1-(2,7-dimethylindazol-3-yl)-4,4,5-trifluoro-3,3-dimethyl-isoquinoline]",164 to 165,≥ 80,≥ 80,≥ 80,≥ 80,–,–,≥ 80,–
"Cn1nc2cc(F)ccc2c1C1=NC(C)(C)C(C)(C)c2c(F)cccc21 [Compound E-21, 5-fluoro-1-(6-fluoro-2-methyl-indazol-3-yl)-3,3,4,4-tetramethyl-isoquinoline]",131 to 133,≥ 80,≥ 80,≥ 80,≥ 80,–,–,–,≥ 80
"Cn1nc2c(Cl)c(Cl)ccc2c1C1=NC(C)(C)Cc2ccccc21 [Compound E-24, 1-(6,7-dichloro-2-methyl-indazol-3-yl)-3,3-dimethyl-4H-isoquinoline]",197 to 199,≥ 80,–,–,–,–,–,–,–
"Cc1ccc2c(C3=NC(C)(C)C(F)(F)c4ccccc43)n(C)nc2c1C [Compound E-25, 4,4-difluoro-3,3-dimethyl-1-(2,6,7-trimethylindazol-3-yl)isoquinoline]",154 to 157,≥ 80,≥ 80,≥ 80,≥ 80,≥ 80,–,–,≥ 80
"Cc1c(Cl)ccc2c(C3=NC(C)(C)C(C)(C)c4c(F)cccc43)n(C)nc12 [Compound E-26, 1-(6-chloro-2,7-dimethyl-indazol-3-yl)-5-fluoro-3,3,4,4-tetramethyl-isoquinoline]",136 to 142,≥ 80,≥ 80,≥ 80,≥ 80,≥ 80,–,–,–
"Cc1ccc2c(C3=NC(C)(C)C(=O)c4ccccc43)n(C)nc2c1C [Compound E-29, 3,3-dimethyl-1-(2,6,7-trimethylindazol-3-yl)isoquinolin-4-one]",174 to 177,≥ 80,≥ 80,≥ 80,≥ 80,≥ 80,–,–,≥ 80
"CC1(C)N=C(c2onc3c(Cl)cccc23)c2ccccc2C1(F)F [Compound E-31, 7-chloro-3-(4,4-difluoro-3,3-dimethyl-1-isoquinolyl)-2,1-benzoxazole]",–,≥ 80,≥ 80,–,≥ 80,≥ 80,–,≥ 80,–
"Cc1cccc2c(C3=NC(C)(C)C(C)(C)c4c(F)cccc43)snc12 [Compound E-32, 3-(5-fluoro-3,3,4,4-tetramethyl-1-isoquinolyl)-7-methyl-2,1-benzothiazole]",96 to 98,≥ 80,≥ 80,≥ 80,≥ 80,≥ 80,–,≥ 80,≥ 80
